This passage reports Ki and EC50 results from patent US20260008775A1, “AZOLE MODULATORS OF CHOLESTEROL BIOSYNTHESIS AND THEIR USE FOR PROMOTING REMYELINATION” (GENENTECH, INC., priority 2022, published 2026).

The target of test [1] is human emopamil binding protein and human 7-dehydrocholesterol reductase (hEBP-DHCR7) (Homo sapiens (Human), UniProt Q15125). Kind of test: hEBP-DHCR7 radioligand binding assay (filter binding, membranes of co-expressing HEK293 cells). The following applies: competition with [3H] radioligand, 8 doses 0.06 to 5000 nM, Ki calculated from IC50. The method, boiled down: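 Compound, either single dose 1 μM or eight 5-fold dilutions from 0.06 to 5000 nM, competed with a [3H]-labelled ligand added at 25 nM for binding to co-expressing HEK293 membranes. IC50 came from nonlinear regression, with full block and DMSO as controls, then Cheng–Prusoff conversion to Ki.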
Chain of human emopamil binding protein and human 7-dehydrocholesterol reductase (hEBP-DHCR7) (Q15125 whole entry): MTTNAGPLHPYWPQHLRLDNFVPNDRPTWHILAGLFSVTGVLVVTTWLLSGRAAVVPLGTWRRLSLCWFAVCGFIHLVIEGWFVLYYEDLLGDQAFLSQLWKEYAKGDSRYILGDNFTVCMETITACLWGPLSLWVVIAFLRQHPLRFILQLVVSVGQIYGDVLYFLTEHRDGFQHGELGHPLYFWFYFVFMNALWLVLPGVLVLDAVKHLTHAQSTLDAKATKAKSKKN

The test system of test [2] is EpiSC-derived OPCs. Put plainly: In vitro phenotypic screening of OPCs, MBP high-content imaging (percentage of oligodendrocytes). The format is cell-based, mouse. The conditions noted are these: Mus musculus, 72 h, 3 days, MBP stain, dose-response 0.5 nM to 1000 nM; read-out: OPC EC50. In outline:
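EC50 was fitted by Hill equation to the MBP-positive oligodendrocyte percentage from imaging of fixed, MBP- and DAPI-stained cells. Treatment lasted 3 days at 37 °C, final doses 0.5–1000 nM over 8 points, in growth factor-free N2B27. Cells were EpiSC-derived OPCs, tested in at least two independent platings.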

Test [3] relates to zymostenol accumulation (EBP) in EpiSC-derived OPCs. Kind of test: GC/MS-based sterol profiling, zymostenol accumulation in EpiSC-derived OPCs. The format is cell-based, mouse. The conditions noted are these: Mus musculus, 24 h, EpiSC-derived OPCs, 24 hr, 8 doses from 0.15 nM to 333 nM; read-out: Mouse Zymostenol GCMS EC50. The method, boiled down:
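Zymostenol level is expressed relative to that after 24 h with 100 nM positive-control reference, measured by full-scan GC/MS (m/z 458) with cholesterol-d7 internal standard after BSTFA derivatisation. Cells were EpiSC-derived OPCs, 100,000/well in N2B27 without growth factors, treated 24 h, from two or more independent platings.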

Regarding `CC(C)n1nc(-c2cccc(C(F)(F)F)n2)cc1[C@H]1[C@@H]2C[C@H](N3CCOCC3)C[C@@H]21` [Compound 32, 4-((1R,3r,5S,6r)-6-(1-isopropyl-3-(6-(trifluoromethyl)pyridin-2-yl)-1H-pyrazol-5-yl)bicyclo[3.1.0]hexan-3-yl)morpholine], the inhibitory constant (Ki) – broadly, the equilibrium dissociation constant of an inhibitor or competing ligand from its target – in test [1] is 0.0345 µM. In addition, the EC50 (usually the midpoint of the concentration-response curve) in test [2] worked out at 0.354 µM; in test [3], 0.052 µM.

As for `CC(C)n1nc(-c2cncc(C(F)(F)F)c2)cc1[C@H]1[C@@H]2C[C@@H](N3CCOC(C)(C)C3)C[C@@H]21` [Compound 33, 4-((1R,3s,5S,6r)-6-(1-Isopropyl-3-(5-(trifluoromethyl)pyridin-3-yl)-1H-pyrazol-5-yl)bicyclo[3.1.0]hexan-3-yl)-2,2-dimethylmorpholine], in test [1], the Ki was 0.0194 µM. Also, the EC50 worked out at 0.0305 µM in test [2] and 0.00533 µM in test [3].

As for `CC(C)n1nc(-c2cncc(C(F)(F)F)c2)cc1[C@H]1[C@@H]2C[C@H](N3CCOC(C)(C)C3)C[C@@H]21` [Compound 34, 4-((1R,3r,5S,6r)-6-(1-isopropyl-3-(5-(trifluoromethyl)pyridin-3-yl)-1H-pyrazol-5-yl)bicyclo[3.1.0]hexan-3-yl)-2,2-dimethylmorpholine], the Ki in test [1] is 0.0345 µM. The 50% effective concentration (EC50) was determined as 0.354 µM in test [2] and 0.052 µM in test [3].

For `CC(C)n1nc(-c2ccc(C(F)(F)F)nc2)cc1[C@H]1[C@@H]2C[C@@H](N3CCCOCC3)C[C@@H]21` [Compound 47, 4-((1R,3S,5S,6R)-6-(1-Isopropyl-3-(6-(trifluoromethyl)pyridin-3-yl)-1H-pyrazol-5-yl)bicyclo[3.1.0]hexan-3-yl)-1,4-oxazepane], the inhibitory constant (Ki) in test [1] was 0.043 µM. For the same compound, the figures for the concentration giving a half-maximal response (EC50) in test [2] and in test [3] were 0.145 µM and 0.046 µM, respectively.

On to `CC(C)n1nc(-c2ccc(C(F)(F)F)nc2)cc1[C@H]1[C@@H]2C[C@H](N3CCCOCC3)C[C@@H]21` [Compound 48, 4-((1R,3S,5S,6R)-6-(1-Isopropyl-3-(6-(trifluoromethyl)pyridin-3-yl)-1H-pyrazol-5-yl)bicyclo[3.1.0]hexan-3-yl)-1,4-oxazepane], for which the inhibition constant Ki in test [1] was 0.0184 µM. In addition, the 50% effective concentration (EC50) in test [2] came to 0.0116 µM; in test [3], 0.00728 µM.

`CC(C)n1nc(-c2cccc(C(F)(F)F)n2)cc1[C@H]1[C@@H]2C[C@@H](N3CCCOCC3)C[C@@H]21` [Compound 49, 4-((1R,3s,5S,6r)-6-(1-Isopropyl-3-(6-(trifluoromethyl)pyridin-2-yl)-1H-pyrazol-5-yl)bicyclo[3.1.0]hexan-3-yl)-1,4-oxazepane]: the inhibition constant (Ki) in test [1] was 0.053 µM. The EC50 in test [2] amounted to 0.075 µM; in test [3] it was 0.042 µM.

Consider `CC(C)n1nc(-c2cccc(C(F)(F)F)n2)cc1[C@H]1[C@@H]2C[C@H](N3CCCOCC3)C[C@@H]21` [Compound 50, 4-((1R,3r,5S,6r)-6-(1-Isopropyl-3-(6-(trifluoromethyl)pyridin-2-yl)-1H-pyrazol-5-yl)bicyclo[3.1.0]hexan-3-yl)-1,4-oxazepane], for which, in test [1], the Ki was 0.021 µM. Further, the half-maximal effective concentration (EC50) is 0.00772 µM in test [2] and 0.00162 µM in test [3].

Consider `CC(C)n1nc(-c2cncc(C(F)(F)F)c2)nc1[C@H]1[C@@H]2C[C@H](N3CCCOCC3)C[C@@H]21` [Compound 51, 4-((1R,3r,5S,6r)-6-(1-Isopropyl-3-(5-(trifluoromethyl)pyridin-3-yl)-1H-1,2,4-triazol-5-yl)bicyclo[3.1.0]hexan-3-yl)-1,4-oxazepane], for which the Ki in test [1] is 0.358 µM. For the same compound, the EC50 in test [2] is 0.0825 µM; in test [3] it was 0.077 µM.

As to `CC(C)n1nc(-c2cncc(C(F)(F)F)c2)nc1[C@H]1[C@@H]2C[C@@H](N3CCCOCC3)C[C@@H]21` [Compound 52, 4-((1R,3s,5S,6r)-6-(1-Isopropyl-3-(5-(trifluoromethyl)pyridin-3-yl)-1H-1,2,4-triazol-5-yl)bicyclo[3.1.0]hexan-3-yl)-1,4-oxazepane], the inhibition constant (Ki) in test [1] is 0.0181 µM. Further, the EC50 in test [2] stood at 0.00629 µM; in test [3] it was 0.0031 µM.

Consider `CCn1nc(-c2cncc(C(F)(F)F)c2)cc1[C@H]1[C@@H]2C[C@@H](N3CCCOCC3)C[C@@H]21` [Compound 53, 4-((1R,3s,5S,6r)-6-(1-Ethyl-3-(5-(trifluoromethyl)pyridin-3-yl)-1H-pyrazol-5-yl)bicyclo[3.1.0]hexan-3-yl)-1,4-oxazepane], for which the Ki in test [1] is 0.0125 µM. For the same compound, the concentration giving a half-maximal response (EC50) in test [2] worked out at 0.075 µM; in test [3], 0.0138 µM.

For `CCn1nc(-c2cncc(C(F)(F)F)c2)cc1[C@H]1[C@@H]2C[C@H](N3CCCOCC3)C[C@@H]21` [Compound 54, 4-((1R,3r,5S,6r)-6-(1-ethyl-3-(5-(trifluoromethyl)pyridin-3-yl)-1H-pyrazol-5-yl)bicyclo[3.1.0]hexan-3-yl)-1,4-oxazepane], in test [1], the inhibition constant Ki was 0.0106 µM. For the same compound, the values for the concentration for a half-maximal effect (EC50) in test [2] and in test [3] were 0.0124 µM and 0.003 µM, respectively.

As to `CC(C)n1nc(-c2cccc(C(F)(F)F)c2)nc1[C@H]1[C@@H]2C[C@@H](N3CCOC[C@@H]3C)C[C@@H]21` [Compound 66, (S)-4-((1R,3r,5S,6S)-6-(1-Isopropyl-3-(3-(trifluoromethyl)phenyl)-1H-1,2,4-triazol-5-yl)bicyclo[3.1.0]hexan-3-yl)-3-methylmorpholin], the Ki in test [1] was 0.0502 µM. The EC50 in test [2] amounted to 0.0149 µM; in test [3], 0.00284 µM.

As to `CC(C)n1nc(-c2cccc(C(F)(F)F)c2)nc1[C@H]1[C@@H]2C[C@H](N3CCOC[C@@H]3C)C[C@@H]21` [Compound 67, (S)-4-((1R,3s,5S,6S)-6-(1-Isopropyl-3-(3-(trifluoromethyl)phenyl)-1H-1,2,4-triazol-5-yl)bicyclo[3.1.0]hexan-3-yl)-3-methylmorpholine], the Ki in test [1] is 0.05 µM. In addition, the half-maximal effective concentration (EC50) amounted to 0.233 µM in test [2] and 0.0665 µM in test [3].

With `CC(C)n1nc(-c2cncc(OC(F)F)c2)nc1[C@H]1[C@@H]2C[C@@H](N3CCCOCC3)C[C@@H]21` [Compound 68, 4-((1R,3s,5S,6r)-6-(3-(5-(Difluoromethoxy)pyridin-3-yl)-1-isopropyl-1H-1,2,4-triazol-5-yl)bicyclo[3.1.0]hexan-3-yl)-1,4-oxazepane], the Ki in test [1] was 0.119 µM. Also, the EC50 in test [2] was 0.417 µM; in test [3], 0.146 µM.

Regarding `CC(C)n1nc(-c2cncc(OC(F)F)c2)nc1[C@H]1[C@@H]2C[C@H](N3CCCOCC3)C[C@@H]21` [Compound 69, 4-((1R,3r,5S,6r)-6-(3-(5-(Difluoromethoxy)pyridin-3-yl)-1-isopropyl-1H-1,2,4-triazol-5-yl)bicyclo[3.1.0]hexan-3-yl)-1,4-oxazepane], the Ki in test [1] was 0.0279 µM. For the same compound, the concentration giving a half-maximal response (EC50) turned out to be 0.0273 µM in test [2] and 0.00819 µM in test [3].

On to `CC(C)n1nc(-c2cccc(C(F)(F)F)n2)nc1[C@H]1[C@@H]2C[C@@H](N3CCOC[C@H]3C)C[C@@H]21` [Compound 72, (R)-4-((1R,3s,5S,6R)-6-(1-Isopropyl-3-(6-(trifluoromethyl)pyridin-2-yl)-1H-1,2,4-triazol-5-yl)bicyclo[3.1.0]hexan-3-yl)-3-methylmorpholine], for which the Ki in test [1] is 1.17 µM. Also, the figures for the concentration giving a half-maximal response (EC50) in test [2] and in test [3] were 0.98 µM and 0.333 µM, respectively.
